The test system of experiment [1] is neuronal-uptake of norepinephrine. Nature of the experiment: inhibition of the neuronal-uptake of norepinephrine (tritium content of the hearts). The class given is in vivo. To be noted: Mus musculus, 1 h; at 50 mg/kg oral, male mice, heart; norepinephrine-3H i.v. one hour after dosing; vs vehicle control; read-out: % Inhibition of Amine Uptake, Norepinephrine. How it is done: (§1) Int. Pharmacoldyn 225, 317-329 (1977)].
(§2) According to this procedure, male mice weighing approximately 25 grams are fasted overnight, then groups of five or more mice are dosed with the test compound or methocel vehicle at 50 mg/kg by oral route. After an interval of one hour, the mice are given an intravenous injection of a saline solution containing 0.5 μCi of norepinephrine-^3 H, 0.5 μCi of serotonin^14 C, and 1 mg/ml of ascorbic acid. The mice are then sacrificed about 15 minutes later, their hearts and spleens rinsed and weighed, and dissolved in a tissue solubilizer. The tritium content of the hearts and carbon-14 content of the spleen are determined by scintillation counting. The percent inhibition of uptake in comparison with the vehicle control group is then recorded.

Experiment [2] deals with neuronal-uptake of serotonin. Nature of the experiment: inhibition of the neuronal-uptake of serotonin (carbon-14 content of the spleen). The class given is in vivo. To be noted: Mus musculus, 1 h, at 50 mg/kg oral, male mice, serotonin-14C i.v. one hour after dosing, vs vehicle control, read-out: % Inhibition of Amine Uptake, Serotonin. Here is the method: as §1, §2

Each structure is given as a SMILES string.

As to `COc1ccc(C2OC3(CCNCC3)N3CCCCC23)cc1` (stereo not shown) [Example 14, Hexahydro-1-(4-methoxyphenyl)spiro[3H-oxazolo[3,4-a]pyridine-3,4'-piperidine]], the inhibition (as a rule, the relative decrease from the control value, in per cent) at 50 mg/kg in experiment [1] amounted to 57%; in experiment [2], 89%.

For `Fc1cccc(C2OC3(CCN(Cc4ccccc4)CC3)N3CCCCC23)c1` (stereo not shown) [Example 4, hexahydro-1'-benzyl-1-(3-fluorophenyl)spiro[3H-oxazolo[3,4-a]pyridine-3,4'-piperidine]], the figures for the inhibition at 50 mg/kg in experiment [1] and in experiment [2] were 58% and 79%, respectively.

On to `Fc1cccc(C2OC3(CCNCC3)N3CCCCC23)c1` (stereo not shown) [Example 5, hexahydro-1-(3-fluorophenyl)spiro[3H-oxazolo[3,4-a]pyridine-3,4'-piperidine]], for which the results for the inhibition at 50 mg/kg in experiment [1] and in experiment [2] were 70% and 89%, respectively.

Take `c1ccc(C2OC3(CCN(CC4CC4)CC3)N3CCCCC23)cc1` (stereo not shown) [Example 15, hexahydro-1'-(cyclopropylmethyl)-1-phenylspiro[3H-oxazolo[3,4-a]pyridine-3,4'-piperidine]]: the inhibition at 50 mg/kg in experiment [1] was 62%; in experiment [2], 77%.

Consider `FC(F)(F)c1cccc(C2OC3(CCNCC3)N3CCCCC23)c1` (stereo not shown) [Example 9, hexahydro-1-[3-(trifluoromethyl)phenyl]spiro[3H-oxazolo[3,4-a]pyridine-3,4'piperidine]], for which the inhibition at 50 mg/kg in experiment [1] was 64%; in experiment [2] it was 86%.

Take `c1ccc(C2OC3(CCNCC3)N3CCCCC23)cc1` (stereo not shown) [Example 2, Hexahydro-1-phenylspiro[3H-oxazolo[3,4-a]pyridine-3,4'-piperidine]]: the inhibition at 50 mg/kg in experiment [1] was 70%; in experiment [2] it was 83%.

In the case of `Clc1ccc(C2OC3(CCN(Cc4ccccc4)CC3)N3CCCCC23)cc1` (stereo not shown) [Example 12, hexahydro-1'-benzyl-1-(4-chlorophenyl)spiro[3H-oxazolo[3,4-a]pyridine-3,4'-piperidine]], the inhibition at 50 mg/kg in experiment [1] was 59%; in experiment [2] it was 84%.

Regarding `CN1CCC2(CC1)OC(c1ccccc1)C1CCCCN12` (stereo not shown) [Example 3, Hexahydro-1'-methyl-1-phenylspiro[3H-oxazolo[3,4-a]pyridine-3,4'-piperidine]], the inhibition at 50 mg/kg in experiment [1] and in experiment [2] was 73% in each case.

For `CN1CCC2(CC1)OC(c1ccc(Cl)cc1)C1CCCCN12` (stereo not shown) [Example 13, hexahydro-1'-methyl-1-(4-chlorophenyl)spiro[3H-oxazolo[3,4-a]pyridine-3,4'-piperidine]], the inhibition at 50 mg/kg in experiment [1] is 77%; in experiment [2], 91%.

In the case of `Fc1ccc(C2OC3(CCNCC3)N3CCCCC23)cc1` (stereo not shown) [Example 11, Hexahydro-1-(4-fluorophenyl)spiro[3H-oxazolo[3,4-a]pyridine-3,4'-piperidine]], the inhibition at 50 mg/kg was 73% in experiment [1] and 89% in experiment [2].

For `COc1ccccc1C1OC2(CCNCC2)N2CCCCC12` (stereo not shown) [Example 7, hexahydro-1-(2-methoxyphenyl)spiro[3H-oxazolo[3,4-a]pyridine-3,4'-piperidine]], the inhibition at 50 mg/kg was determined as 67% in experiment [1] and 71% in experiment [2].

The values are drawn from patent US4260623A, “Hexahydro-1-arylspiro(3H-oxazolo(3,4-A)pyridine-3,4'-piperidene) antidepressants, pharmaceutical compositions thereof and method of use thereof” (Warner-Lambert Company, priority 1979, dated 1981).
